# Test results: US12662530B2, “Anti-ADM-antibodies binding to the free N-terminus for accelerated transition of ADM-Gly to bio-ADM in patients with ADM-Gly/ bio-ADM ratio above a threshold and combination with vitamin C” (SphingoTec GmbH, priority 2020, dated 2026)
# Like-named read-outs stand apart in the source and are kept apart here.
# What was measured:
# recombinant human PAM = assay: Formation of bio-ADM from ADM-Gly by recombinant human PAM; type: biochemical
# Protocol: The formation of bio-ADM from c-terminally glycinated 1-53 Adrenomedullin (ADM-Gly) by recombinant human PAM and the influence of the N-terminal anti-Adrenomedullin antibodies on the bio-ADM formation from ADM-Gly by PAM was investigated.
# In a first step, 200 μl per well ADM-Gly (50 ng/mL) dissolved in buffer (300 mM potassium-phosphate, 100 mM NaCl, 10 mM Na-EDTA, 5 g/L BSA, pH 7.0) was added to microtiter plate wells that were precoated with an anti-MR-ADM antibody, and were incubated for 1 h at 22° C. under agitation (600 rpm). Unbound material was removed by washing. In a second step, varying concentrations (0-100 μg/mL) of either N-terminal- (HAM8101), C-terminal anti-Adrenomedullin antibody specifically blocking the glycinated C-terminus of ADM-Gly or an unspecific antibody (control antibody) was added to the wells (200 μl per well) for 1 h at 22° C. under agitation (600 rpm). The respective antibodies were diluted in buffer as described above. Unbound antibodies were removed by washing. […] After a final washing step, the remaining chemiluminescence was measured for 1 s per well with a Centro LB 960 microtiter plate luminescence reader (Berthold Technologies). To evaluate the velocity of the enzyme PAM, the signal for bio-ADM measured at t=0 minutes was subtracted from the signal for bio-ADM at t=40 minutes for each antibody concentration. […]
# [1] = Single escalating i.v. doses in healthy male subjects (phase I): ADM values and safety; type: in vivo, human
# Protocol: The study was described in Geven et al. (Geven et al. 2017. Intensive Care Med Exp 5 (Suppl 2): 0427). Briefly, the study was conducted in healthy male subjects as a randomized, double-blind, placebo-controlled, study with single escalating doses of NT-H antibody (HAM8101) administered as intravenous (i.v.) infusion in 3 sequential groups of 8 healthy male subjects each (1st group 0.5 mg/kg, 2nd group 2 mg/kg, 3rd group 8 mg/kg) of healthy male subjects (n=6 active, n=2 placebo for each group). The main inclusion criteria were written informed consent, age 18-35 years, agreement to use a reliable way of contraception and a BMI between 18 and 30 kg/m^2. Subjects received a single i.v. dose of NT-H antibody (HAM8101) (0.5 mg/kg; 2 mg/kg; 8 mg/kg) or placebo by slow infusion over a 1-hour period in a research unit.
# human native PAM = assay: bio-ADM maturation activity (AMA) in samples of healthy subjects before and after administration; type: in vivo
# Protocol: Human serum was used as source of human native PAM. Each sample (20 μl) was diluted two-fold in 100 mM Tris-HCl in duplicate. The amidation reaction was initiated by addition of 160 μl of NT-ADM antibodies (HAM8101, AK1373, AK1388, AK1398 or AK1434) or MR-ADM antibodies (ADM43, ADM38, ADM41, ADM2901, ADM2902 and ADM2903) containing PAM-reaction buffer (100 mM Tris-HCl, pH 7.5, 6.25 μM CuSO4, 2.5 mM Ascorbate, 125 μg/mL Catalase, 62.5 μM Amastatin, 250 μM Leupeptin, and 36 ng/mL synthetic 1-53 Adrenomedullin-Gly as substrate). The final antibody concentrations were 100 μg/mL, respectively. Afterwards, 100 μl of each individual reaction of duplicated samples were combined and transferred into 20 μl of 200 mM EDTA to terminate the amidation reaction and thus to generate a t=0 minutes reaction time-point followed by incubation at 37° C. for 40 minutes. Afterwards the non-terminated reactions were stopped with 10 μl of 200 mM EDTA. To determine the PAM activity in NT-ADM antibody containing samples, bio-ADM was quantified in each reaction using the Sphingotest® bio-ADM immunoassay (Weber et al. 2017, supra). The MR-ADM antibody containing reaction was transferred to an alternative bio-ADM assay (description below). A control reaction without antibodies was measured in both bio-ADM assays. For each sample the difference between t=40 min and t=0 min bio-ADM concentration was calculated. PAM activity is described as ng bio-ADM formed per hour and L of sample and was normalized to the reaction without antibody addition, which was set as 100%.
# The formation of bio-ADM from ADM-Gly by recombinant human PAM enzyme and the invivo influence of the N-terminal anti-Adrenomedullin antibody HAM8101 using samples from healthy subjects that received HAM8101 was investigated by measuring the bio-ADM maturation activity (AMA).
# Samples from n=3 subjects from each administration group before and 1 hour after administration of HAM8101 were used. Activity was determined as described for Serum samples in example 5b). The assay was calibrated using recombinant human PAM of known activity (InVivo Biotech Services GmbH, Hennigsdorf). Calibrators, controls and samples were treated in the same manner. The produced bio-ADM in the reaction-samples was quantified using the Sphingotest® bio-ADM assay (Weber et al., 2017). For each sample the difference of the t=40 min and t=0 min signal (RLUs, relative light units) was calculated and the signal (RLU(t40−t0 min)) of the calibrator was used to determine the AMA in tested serum samples. AMA is expressed as ng bio-ADM formed per hour and Liter of sample (ng/[h*L]).
# [2] = Geven et al. 2017; cited from earlier work
# [3] = tested on: CLP-induced sepsis in mice; conditions: pre-treatment, cited from earlier work
substance,measurement,setting,value
"HAM8101: humanized N-terminal anti-ADM antibody, heavy chain SEQ ID No. 35, light chain SEQ ID No. 36",PAM activity compared to the reaction without antibody addition (set at 100%),"recombinant human PAM; 10 μg/mL antibody, 40 minutes, 37° C., 2 mM L-Ascorbate",233%
same,influence on conversion of ADM-Gly to bio-ADM by PAM,"recombinant human PAM; antibody 0-100 μg/mL, FIG. 7",significant accelerating effect
same,time within which ADM-values rapidly increased after administration,"[1]; healthy human individuals, 0.5, 2, 8 mg/kg i.v., FIG. 10",≤ 1.5 h
same,"safety: heart rate, mean arterial pressure, peripheral oxygen saturation, temperature","[1]; healthy male subjects, single i.v. dose 0.5, 2, 8 mg/kg","did not influence heart rate, mean arterial pressure, peripheral oxygen saturation or temperature"
same,routine haematological and biochemical safety laboratory measurements,"[1]; healthy male subjects, single i.v. dose 0.5, 2, 8 mg/kg versus placebo",no significant differences between groups
same,AMA increased by,"human native PAM; group 1 (0.5 mg/kg), after 1 hour",approximately 60%
same,AMA increased by,"human native PAM; group 1 (0.5 mg/kg), after 4 hours",~40%
same,AMA increased by,"human native PAM; group 1 (0.5 mg/kg), after 24 hours",~52%
same,AMA increased by,"human native PAM; group 2 (2 mg/kg), after 1 hour",approximately 27%
same,AMA increased by,"human native PAM; group 2 (2 mg/kg), after 4 hours",~25%
same,AMA increased by,"human native PAM; group 2 (2 mg/kg), after 24 hours",~40%
same,AMA increased by,"human native PAM; group 3 (8 mg/kg), after 1 hour",approximately 65%
same,AMA increased by,"human native PAM; group 3 (8 mg/kg), after 4 hours",~48%
same,AMA increased by,"human native PAM; group 3 (8 mg/kg), after 24 hours",approximately 60%
same,"safety and tolerability, phase I study",[2],no serious adverse events were observed
same,7-day survival,"[3]; repeated dose administration, control 0%",40%
same,7-day survival,"[3]; single dose administration, control 10%",50%
